# Assay results from ChEMBL document CHEMBL1268897, “Discovery and optimization of adamantyl carbamate inhibitors of 11β-HSD1” (Bioorg Med Chem Lett, 2010).
# Key:
# Cytochrome P450 3A4 = Cytochrome P450 3A4 (Homo sapiens, UniProt P08684); assay: Inhibition of CYP3A4; type: ADME
# Cytochrome P450 2C9 = Cytochrome P450 2C9 (Homo sapiens, UniProt P11712); assay: Inhibition of CYP2C9; type: ADME
# Cytochrome P450 2D6 = Cytochrome P450 2D6 (Homo sapiens, UniProt P10635); assay: Inhibition of CYP2D6; type: ADME
# Cytochrome P450 2D6, sequence (P10635 whole entry): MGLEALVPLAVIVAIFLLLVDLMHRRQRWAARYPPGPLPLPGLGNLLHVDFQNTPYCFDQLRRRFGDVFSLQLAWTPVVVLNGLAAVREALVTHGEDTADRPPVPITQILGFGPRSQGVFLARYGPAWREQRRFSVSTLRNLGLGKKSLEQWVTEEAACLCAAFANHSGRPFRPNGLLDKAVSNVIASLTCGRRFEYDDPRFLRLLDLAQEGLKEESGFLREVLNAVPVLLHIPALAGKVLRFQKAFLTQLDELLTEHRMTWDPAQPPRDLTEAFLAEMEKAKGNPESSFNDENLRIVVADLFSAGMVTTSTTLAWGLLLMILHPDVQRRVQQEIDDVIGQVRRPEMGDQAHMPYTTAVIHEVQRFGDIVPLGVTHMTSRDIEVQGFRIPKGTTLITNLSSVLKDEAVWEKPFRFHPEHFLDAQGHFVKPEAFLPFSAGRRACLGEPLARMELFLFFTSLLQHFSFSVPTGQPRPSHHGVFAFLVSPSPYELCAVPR
# in vitro [1] = settings: rat, liver microsomes
# [2] = molecular target: T1, 11-beta-hydroxysteroid dehydrogenase 1 (Homo sapiens, UniProt P28845); assay: Inhibition of recombinant 11betaHSD1 expressed in CHO cells assessed as [3H]-cortisone to [3H]-cortisol by microscintillation plate reader; type: cell-based
# T1 sequence (P28845 whole entry): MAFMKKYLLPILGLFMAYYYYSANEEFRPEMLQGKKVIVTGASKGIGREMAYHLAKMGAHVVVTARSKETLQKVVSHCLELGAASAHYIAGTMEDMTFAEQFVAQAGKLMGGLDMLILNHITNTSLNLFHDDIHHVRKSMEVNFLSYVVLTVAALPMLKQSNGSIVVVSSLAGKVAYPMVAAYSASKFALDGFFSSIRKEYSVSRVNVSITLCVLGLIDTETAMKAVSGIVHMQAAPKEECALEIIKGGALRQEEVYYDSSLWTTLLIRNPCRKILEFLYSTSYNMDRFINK
# [3] = molecular target: T1, 11-beta-hydroxysteroid dehydrogenase 1; assay: Inhibition of 11betaHSD1 in human platelet assessed as [3H]-cortisone to [3H]-cortisol by microscintillation plate reader
# [4] = molecular target: T2, 3 beta-hydroxysteroid dehydrogenase/Delta 5-->4-isomerase type 2 (Homo sapiens, UniProt P26439); assay: Inhibition of 3betaHSD2
# T2 sequence (P26439 whole entry): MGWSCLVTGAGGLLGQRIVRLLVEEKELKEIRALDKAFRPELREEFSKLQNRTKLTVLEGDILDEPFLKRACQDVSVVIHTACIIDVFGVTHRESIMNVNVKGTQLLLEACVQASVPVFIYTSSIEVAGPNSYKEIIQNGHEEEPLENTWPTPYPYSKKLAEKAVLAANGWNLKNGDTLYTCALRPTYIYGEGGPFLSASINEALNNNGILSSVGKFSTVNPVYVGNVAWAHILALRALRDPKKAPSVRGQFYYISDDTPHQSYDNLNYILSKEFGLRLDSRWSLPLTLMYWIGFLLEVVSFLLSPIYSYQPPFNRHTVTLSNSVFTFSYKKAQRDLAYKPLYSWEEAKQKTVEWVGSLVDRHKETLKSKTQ
# [5] = molecular target: T3, 11-beta-hydroxysteroid dehydrogenase type 2 (Homo sapiens, UniProt P80365); assay: Inhibition of 11betaHSD2
# T3 sequence (P80365 whole entry): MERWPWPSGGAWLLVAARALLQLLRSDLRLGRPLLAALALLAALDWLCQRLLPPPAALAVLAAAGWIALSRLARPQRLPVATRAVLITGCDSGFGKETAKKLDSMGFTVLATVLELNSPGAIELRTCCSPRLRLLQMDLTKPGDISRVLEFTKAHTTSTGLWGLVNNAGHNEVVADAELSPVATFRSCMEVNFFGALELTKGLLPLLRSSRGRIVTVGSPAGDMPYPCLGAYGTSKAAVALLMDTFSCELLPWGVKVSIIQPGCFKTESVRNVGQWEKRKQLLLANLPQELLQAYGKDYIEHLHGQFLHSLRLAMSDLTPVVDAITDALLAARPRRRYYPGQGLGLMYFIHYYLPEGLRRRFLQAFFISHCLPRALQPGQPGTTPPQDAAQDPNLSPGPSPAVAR
# [6] = molecular target: T1, 11-beta-hydroxysteroid dehydrogenase 1; assay: Inhibition of recombinant 11betaHSD1 expressed in CHO cells assessed as [3H]-cortisone to [3H]-cortisol by microscintillation plate reader in presence of plasma; type: cell-based
# in vitro [7] = settings: rat, hepatocytes
# Description: Metabolic stability in rat hepatocytes assessed as hepatic clearance
# [8] = molecular target: 17-beta-hydroxysteroid dehydrogenase type 1 (Homo sapiens) (UniProt P14061); assay: Inhibition of 17betaHSD1
# 17-beta-hydroxysteroid dehydrogenase type 1 (Homo sapiens), sequence (P14061 whole entry, looked up): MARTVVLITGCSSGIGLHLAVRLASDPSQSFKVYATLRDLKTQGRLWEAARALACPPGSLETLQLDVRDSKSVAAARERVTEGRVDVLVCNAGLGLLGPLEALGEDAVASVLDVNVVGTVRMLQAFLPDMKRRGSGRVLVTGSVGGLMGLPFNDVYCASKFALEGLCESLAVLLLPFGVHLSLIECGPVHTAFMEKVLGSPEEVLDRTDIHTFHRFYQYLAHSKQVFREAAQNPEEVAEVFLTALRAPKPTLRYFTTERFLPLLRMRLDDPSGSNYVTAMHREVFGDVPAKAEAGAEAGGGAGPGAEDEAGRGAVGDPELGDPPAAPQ
# [9] = AUC in rat at 1 umol/kg, iv and 5 umol/kg, po; settings: plasma
# [10] = Clearance in rat at 1 umol/kg, iv and 5 umol/kg, po; settings: in vivo
# [11] = Mean residence time in rat at 1 umol/kg, iv and 5 umol/kg, po; settings: in vivo
# [12] = Oral bioavailability in rat at 1 umol/kg, iv and 5 umol/kg, po; settings: in vivo
# Rattus norvegicus = assay: Volume of distribution in rat at 1 umol/kg, iv and 5 umol/kg, po; settings: in vivo
# Bile acid receptor = molecular target: T4, Bile acid receptor (Homo sapiens, UniProt Q96RI1); assay: Activity against FXR
# T4 sequence (Q96RI1 whole entry): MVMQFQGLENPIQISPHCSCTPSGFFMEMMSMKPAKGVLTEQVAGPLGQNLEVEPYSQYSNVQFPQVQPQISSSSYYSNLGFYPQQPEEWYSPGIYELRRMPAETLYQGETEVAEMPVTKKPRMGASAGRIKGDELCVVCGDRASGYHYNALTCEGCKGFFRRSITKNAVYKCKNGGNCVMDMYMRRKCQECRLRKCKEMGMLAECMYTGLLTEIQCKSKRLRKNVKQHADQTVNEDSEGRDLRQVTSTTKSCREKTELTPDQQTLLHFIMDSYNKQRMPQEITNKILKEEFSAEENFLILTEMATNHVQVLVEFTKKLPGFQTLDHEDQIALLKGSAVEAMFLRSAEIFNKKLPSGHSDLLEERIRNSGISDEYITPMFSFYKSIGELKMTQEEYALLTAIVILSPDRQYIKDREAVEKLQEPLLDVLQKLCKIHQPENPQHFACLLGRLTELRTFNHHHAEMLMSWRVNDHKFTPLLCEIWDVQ
# Glucocorticoid receptor = molecular target: T5, Glucocorticoid receptor (Homo sapiens, UniProt P04150); assay: Activity against GR
# T5 sequence (P04150 whole entry): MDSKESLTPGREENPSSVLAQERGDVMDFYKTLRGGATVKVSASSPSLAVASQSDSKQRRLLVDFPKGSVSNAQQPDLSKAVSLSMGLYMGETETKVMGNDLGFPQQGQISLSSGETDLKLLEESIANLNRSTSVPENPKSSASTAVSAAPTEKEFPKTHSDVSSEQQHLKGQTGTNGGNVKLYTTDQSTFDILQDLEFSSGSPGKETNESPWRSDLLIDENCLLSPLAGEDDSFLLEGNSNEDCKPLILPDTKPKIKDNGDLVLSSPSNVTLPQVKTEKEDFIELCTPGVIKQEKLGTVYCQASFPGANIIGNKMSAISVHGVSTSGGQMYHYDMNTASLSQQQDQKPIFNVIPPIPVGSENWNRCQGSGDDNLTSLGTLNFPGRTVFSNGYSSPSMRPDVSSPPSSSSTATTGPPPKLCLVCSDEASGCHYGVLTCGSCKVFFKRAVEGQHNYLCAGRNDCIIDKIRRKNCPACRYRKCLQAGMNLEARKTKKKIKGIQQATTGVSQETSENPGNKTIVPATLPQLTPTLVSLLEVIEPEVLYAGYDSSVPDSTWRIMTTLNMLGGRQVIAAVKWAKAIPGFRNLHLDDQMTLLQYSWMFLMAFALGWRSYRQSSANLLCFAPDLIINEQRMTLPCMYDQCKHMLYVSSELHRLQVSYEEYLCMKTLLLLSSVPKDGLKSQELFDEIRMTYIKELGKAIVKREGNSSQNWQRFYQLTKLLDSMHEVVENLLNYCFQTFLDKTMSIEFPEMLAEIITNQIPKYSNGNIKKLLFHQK
# Cytochrome P450 2C9, sequence (P11712 whole entry): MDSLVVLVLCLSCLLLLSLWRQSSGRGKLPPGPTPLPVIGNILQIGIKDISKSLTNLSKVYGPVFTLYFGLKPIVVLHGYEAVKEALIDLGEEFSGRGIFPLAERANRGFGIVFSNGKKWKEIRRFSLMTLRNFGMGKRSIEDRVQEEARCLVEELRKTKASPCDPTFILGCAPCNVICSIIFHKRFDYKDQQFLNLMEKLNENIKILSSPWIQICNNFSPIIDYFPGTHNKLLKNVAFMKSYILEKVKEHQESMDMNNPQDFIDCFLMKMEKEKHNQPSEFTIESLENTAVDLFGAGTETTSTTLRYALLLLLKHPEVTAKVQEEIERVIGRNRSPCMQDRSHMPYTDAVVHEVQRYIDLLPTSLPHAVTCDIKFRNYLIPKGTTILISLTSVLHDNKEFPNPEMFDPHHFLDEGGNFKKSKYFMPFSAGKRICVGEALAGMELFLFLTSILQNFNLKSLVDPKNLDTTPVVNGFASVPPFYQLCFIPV
# Cytochrome P450 3A4, sequence (P08684 whole entry): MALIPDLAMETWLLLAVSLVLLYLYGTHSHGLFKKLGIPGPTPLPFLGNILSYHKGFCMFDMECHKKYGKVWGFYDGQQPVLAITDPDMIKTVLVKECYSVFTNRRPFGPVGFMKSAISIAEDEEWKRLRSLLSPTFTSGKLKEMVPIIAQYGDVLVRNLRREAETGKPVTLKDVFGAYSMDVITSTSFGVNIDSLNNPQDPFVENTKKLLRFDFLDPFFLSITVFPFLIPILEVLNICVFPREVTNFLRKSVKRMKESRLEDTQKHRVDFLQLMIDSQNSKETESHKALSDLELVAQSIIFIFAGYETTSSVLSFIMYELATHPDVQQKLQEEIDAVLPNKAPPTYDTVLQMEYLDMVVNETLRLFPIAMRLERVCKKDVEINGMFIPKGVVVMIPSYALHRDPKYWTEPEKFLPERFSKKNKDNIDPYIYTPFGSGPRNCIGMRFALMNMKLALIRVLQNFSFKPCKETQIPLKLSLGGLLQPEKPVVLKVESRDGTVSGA
smiles,measurement,setting,value
CC(C)(C)OC(=O)N[C@@H]1CCN(C(=O)OC2C3CC4CC(C3)CC2C4)C1 (some centres undefined),IC50,Cytochrome P450 3A4,> 30 µM
same,IC50,Cytochrome P450 2C9,11.4 µM
same,IC50,Cytochrome P450 2D6,> 30 µM
same,half-life,in vitro [1],2 min
N#Cc1ccc(N[C@H]2CCN(C(=O)O[C@H]3C4CC5CC3C[C@](C(N)=O)(C5)C4)C2)nc1,IC50,[2],0.0017 µM
same,IC50,[3],0.0052 µM
same,IC50,Cytochrome P450 3A4,26.6 µM
same,IC50,Cytochrome P450 2C9,20 µM
same,IC50,Cytochrome P450 2D6,16.6 µM
same,half-life,in vitro [1],25 min
O=C(OC1C2CC3CC(C2)CC1C3)N1CCCCC1 (centres undefined),half-life,in vitro [1],2 min
NC(=O)[C@]12CC3CC(C1)[C@@H](OC(=O)N1CC[C@@H](Nc4cccc(C(F)(F)F)n4)C1)C(C3)C2,IC50,Cytochrome P450 3A4,4.8 µM
same,IC50,Cytochrome P450 2C9,2.4 µM
same,IC50,Cytochrome P450 2D6,5.9 µM
same,half-life,in vitro [1],7 min
NC(=O)[C@]12CC3CC(C1)[C@H](OC(=O)N1CC[C@H](Nc4ncccc4C(F)(F)F)C1)C(C3)C2,IC50,Cytochrome P450 3A4,8.5 µM
same,IC50,Cytochrome P450 2C9,8 µM
same,IC50,Cytochrome P450 2D6,> 30 µM
same,half-life,in vitro [1],11 min
NC(=O)[C@]12CC3CC(C1)[C@@H](OC(=O)N1CC[C@H](Nc4ccc(C(F)(F)F)cn4)C1)C(C3)C2,IC50,Cytochrome P450 3A4,10.3 µM
same,IC50,Cytochrome P450 2C9,2.4 µM
same,IC50,Cytochrome P450 2D6,11.6 µM
same,half-life,in vitro [1],> 60 min
CC(C)(C)OC(=O)N[C@@H]1CCN(C(=O)O[C@H]2C3CC4CC2C[C@](C(C)(C)O)(C4)C3)C1,IC50,[2],0.098 µM
same,IC50,[3],> 0.1 µM
CC(C)(C)CC(=O)N[C@@H]1CCN(C(=O)OC2C3CC4CC(C3)CC2C4)C1 (some centres undefined),IC50,[2],0.068 µM
OC1C2CC3CC(C2)CC1C3 (centres undefined) [ADAMANTAN-2-OL],IC50,Cytochrome P450 3A4,> 30 µM
same,IC50,Cytochrome P450 2C9,22 µM
same,IC50,Cytochrome P450 2D6,> 30 µM
same,half-life,in vitro [1],2 min
N#Cc1cccnc1N[C@H]1CCN(C(=O)O[C@H]2C3CC4CC2C[C@](C(N)=O)(C4)C3)C1,IC50,[2],0.0026 µM
same,IC50,[3],0.0076 µM
same,IC50,Cytochrome P450 3A4,18.6 µM
same,IC50,Cytochrome P450 2C9,> 30 µM
same,IC50,Cytochrome P450 2D6,> 30 µM
same,half-life,in vitro [1],25 min
NC(=O)[C@]12CC3CC(C1)[C@@H](OC(=O)N1CC[C@@H](Nc4nnc(C(F)(F)F)s4)C1)C(C3)C2,IC50,[2],0.0213 µM
same,IC50,[3],> 0.1 µM
N#Cc1ccc(N[C@@H]2CCN(C(=O)O[C@H]3C4CC5CC3C[C@](C(N)=O)(C5)C4)C2)nc1,IC50,[2],0.0015 µM
same,IC50,[3],0.0027 µM
same,IC50,[4],> 10 µM
same,IC50,[5],8.65 µM
same,IC50,[6],0.0032 µM
same,IC50,Cytochrome P450 3A4,14.2 µM
same,IC50,Cytochrome P450 2C9,23.1 µM
same,IC50,Cytochrome P450 2D6,25 µM
same,half-life,in vitro [1],46 min
same,CLhep predicted,in vitro [7],33 mL/min/kg
same,IC50,[8],> 10 µM
same,AUC,[9],0.209 µM·h
same,clearance,[10],80 mL/min/kg
same,MRT,[11],30 min
same,bioavailability,[12],27%
same,Vd,Rattus norvegicus,2.2 L/kg
CC(C)(C)OC(=O)N[C@H]1CCN(C(=O)O[C@H]2C3CC4CC2C[C@](C(N)=O)(C4)C3)C1,IC50,[2],0.0044 µM
same,IC50,[3],0.0176 µM
NC(=O)[C@]12CC3CC(C1)[C@@H](OC(=O)N1CC[C@@H](Nc4ncccc4C(F)(F)F)C1)C(C3)C2,IC50,Cytochrome P450 3A4,3.3 µM
same,IC50,Cytochrome P450 2C9,9.4 µM
same,half-life,in vitro [1],30 min
Cc1cc(N[C@@H]2CCN(C(=O)O[C@H]3C4CC5CC3C[C@](C(N)=O)(C5)C4)C2)nc(C)n1,IC50,[2],0.0207 µM
same,IC50,[3],> 0.1 µM
NC(=O)[C@]12CC3CC(C1)[C@@H](OC(=O)N1CC[C@@H](Nc4ccc(C(F)(F)F)cn4)C1)C(C3)C2,IC50,Cytochrome P450 3A4,7.2 µM
same,IC50,Cytochrome P450 2C9,4.1 µM
same,IC50,Cytochrome P450 2D6,11.6 µM
same,half-life,in vitro [1],47 min
N#Cc1cccnc1N[C@@H]1CCN(C(=O)O[C@H]2C3CC4CC2C[C@](C(N)=O)(C4)C3)C1,IC50,[2],0.00087 µM
same,IC50,[3],0.0004 µM
same,IC50,[4],> 10 µM
same,IC50,[5],7.35 µM
same,IC50,[6],0.0024 µM
same,IC50,Cytochrome P450 3A4,17.1 µM
same,IC50,Cytochrome P450 2C9,> 30 µM
same,IC50,Cytochrome P450 2D6,> 30 µM
same,half-life,in vitro [1],> 60 min
same,CLhep predicted,in vitro [7],41 mL/min/kg
same,IC50,[8],> 10 µM
same,AUC,[9],0.398 µM·h
same,clearance,[10],42 mL/min/kg
same,MRT,[11],18 min
same,bioavailability,[12],42%
same,Vd,Rattus norvegicus,0.7 L/kg
CC(C)(C)OC(=O)N[C@@H]1CCN(C(=O)O[C@H]2C3CC4CC2C[C@](C(N)=O)(C4)C3)C1,IC50,[2],0.0034 µM
same,IC50,[3],0.0075 µM
same,EC50,Bile acid receptor,> 10 µM
same,EC50,Glucocorticoid receptor,> 10 µM
same,IC50,Cytochrome P450 3A4,> 30 µM
same,IC50,Cytochrome P450 2C9,> 30 µM
same,IC50,Cytochrome P450 2D6,> 30 µM
same,half-life,in vitro [1],30 min
